Patent US20180271470A1, “METHODS FOR QUANTIFYING PANCREATIC BETA CELL FUNCTION AND MASS PROPERTIES WITH RADIOMANGANESE POSITRON EMISSION TOMOGRAPHY” (Wisconsin Alumni Research Foundation, priority 2017, published 2018)
Values joined by “and” are separate entries in the source; they are usually repeats but may differ in a detail not shown here. Equal entries are not always repeated.

Tests used:
[1] = Static PET imaging of ^52Mn^2+ biodistribution in normal mice; type: in vivo, ICR mice
Protocol: The acquisition of PET images was performed in the Inveon μPET/μCT scanner (Siemens Preclinical Solutions, Knoxville, Tenn.). To study the long-term biodistribution and clearance of ^52Mn^2+ in the mouse body, approximately 3.7 MBq (100 μCi) of ^52Mn^2+ was injected intravenously (IV) in female ICR mice. […] Before each scan, mice were anesthetized with isoflurane (4% induction; 1% maintenance) and placed in the scanner in prone position. 30×10^6-40×10^6 coincidence events per mouse static PET scans were acquired (time window, 3.432 ns; energy window, 350-650 keV) and the PET images were reconstructed in Inveon Acquisition Workplace (Siemens Preclinical Solutions, Knoxville, Tenn.) workstation using a non-scatter-corrected three-dimensional Ordered Subset Expectation […]/Maximum a Posteriori (OSEM3D/MAP) algorithm. Region-of-interest (ROI) analysis was performed after organs were manually delineated on the PET images. Tissue uptake values were reported as standardized uptake value (SUV), which is normalized to whole body radiomanganese concentration.

[2] = ^52Mn^2+ PET and biodistribution in STZ type-1 diabetes model; type: in vivo, ICR mice
Protocol: Type 1 diabetes was induced in female ICR mice via a single IP injection of 180 mg/kg streptozotocin (STZ; MP Biomedical, LLC, Santa Ana, Calif.), a toxin that selectively destroys pancreatic beta cell. The injectable STZ solution (12.5 mg/mL) was prepared freshly in phosphate buffered saline (PBS). The weight of each mouse was measured daily, and blood glucose levels were recorded every other day with a glucometer (TRUEresult, Trividia Health Inc., Fort Lauderdale, Fla.) using blood samples collected from the tail vein. Mice were considered diabetic after two consecutive blood glucose readings above 250 mg/dL and were used for PET imaging studies one week after the injection of STZ. To evaluate ^52Mn^2+ pancreatic uptake on diabetic mice, 0.74 MBq (20 μCi) of activity were administered IV and static PET images recorded one hour after administration of the tracer. Ex vivo biodistribution was carried out following PET acquisition.

[3] = Ex vivo ^52Mn^2+ biodistribution by gamma counting after last PET scan; type: in vivo; details: ICR mice, ex vivo gamma counting 13 days after injection
Protocol: Ex vivo biodistribution studies were performed in all groups of mice in order to validate the results of PET imaging and obtain a more complete biodistribution profile of ^52Mn^2+. Following the last imaging time point, mice were euthanized by C02 asphyxiation and the organs of interest were removed, wet-weighed, and counted on an automated gamma-counter (Wizard 2480, Perkin Elmer). The tissue uptake of ^52Mn^2+ was reported as SUV (mean±SD).

[4] = test system: isolated ob/ob mouse islets; test: Uptake of ^52Mn^2+ in isolated islets under stimulatory or inhibitory conditions; type: cell-based; details: low glucose (1 mM), 370 kBq ^52Mn^2+
Protocol: Mouse pancreatic islets were isolated by collagenase digestion. Briefly, mice were placed under shallow anesthesia and sacrificed via cervical dislocation. The mouse common bile duct was cannulized and 3-5 mL of an ice-cold solution containing type XI collagenase (0.5 mg/mL; Sigma Aldrich, St. Louis, Mo.) and bovine serum albumin (BSA; 0.2 mg/mL; Sigma Aldrich, St. Louis, Mo.) in Hank's balanced salt solution (HBSS; Invitrogen, Carlsbad, Calif.) was injected into the mouse pancreas. After inflation, the pancreas was removed, placed in a glass vial containing 5 mL of the collagenase solution, and incubated in a shaking water bath at 37° C. Samples were digested for approximately 30 min after which the digests were centrifuged at 50×g for 2 min and islet pellets were washed three times with 30 mL of an ice-cold BSA (0.2 mg/mL) in HBSS solution. The pellet was resuspended and islets handpicked into 35 mm petri dishes. Following isolation, islets were placed in RPMI1640 media supplemented with penicillin (100 U/mL; Invitrogen), streptomycin (100 μg/mL; Invitrogen), and FBS [10% (wt/vol); Sigma] and incubated overnight at 37° C. in a 5% CO2 atmosphere.
The uptake of ^52Mn^2+ by murine islets of Langerhans was determined under several stimulatory or inhibitory conditions. Batches of 50 islets were transferred into 0.45 μm filtered bottom 1 mL centrifuge vials (Thermo Fisher Scientific, Grand Island, N.Y.), 500 μL of Krebs-Ringer buffer (KRB: 118 mM NaCl, 5.4 mM KCl, 2.4 mM CaCl, 1.2 mM MgSO4, 1 mM […], 20 mM HEPES; pH 7.4) containing a low glucose concentration (1 mM D-glucose) were added and the islets incubated for 30 min at 37° C. After removing the supernatant following centrifugation at 50×g for 5 min, 250 μL of KRB containing glucose, diazoxide (50 μM; Tocris Biosciences, Bristol, UK), or tolbutamide (250 μM; Selleckchem, Houston, Tex.) were added, and the vials were spiked with 370 kBq (10 μCi) of ^52Mn^2+. After 15 min of incubation, the solutions were filtered and islets were washed three times with KRB. The ^52Mn^2+ radioactivity in the islet pellets were measured in an automated gamma counter (Perkin Elmer).

[5] = Static PET imaging of ^52Mn^2+ biodistribution in normal mice; type: in vivo, ICR mice; details: healthy mice, IV, peaked within minutes following administration
[6] = ^52Mn^2+ PET in pre-type 2 diabetic ob/ob and lean C57BL/6J mice; type: in vivo
Text: Given the altered glucose metabolism in obese mice, we compared the pancreatic uptake of ^52Mn^2+ in lean (wild-type) and obese (ob/ob) mice on the C57BL/6J background. For PET imaging, 0.74 MBq (20 μCi) of ^52Mn^2+ was IV injected into obese mice or lean controls one hour prior to PET scan acquisition. Subsequent ^52Mn^2+ accumulation in the pancreas and other organs of interest was quantified.

[7] = Dynamic PET of ^52Mn^2+ (rapid IV bolus or 30 min IV infusion) under isoflurane; type: in vivo, mice
Protocol: To acquire dynamic PET scans, mice were anesthetized with isoflurane and the lateral tail vein was catheterized. Simultaneous with the administration of approximately 1.7 MBq (50 μCi) of ^52Mn^2+ as a fast IV bolus, one-hour scans were recorded and list-mode files were binned into 46 frames (12×5 s, 6×10 s, 6×30 s, 10×60 s, 6×150 s, 6×300 s) and the images reconstructed using a non-scatter-corrected OSEM3D/MAP algorithm. In another study, 1.7 MBq (50 μCi) of ^52Mn^2 was continuously infused with a syringe pump (Kd Scientific, Model 780100) over a period of 30 min, starting at the beginning of the PET scan. List-mode files were framed into 30×2 min frames and reconstructed using the above-mentioned algorithm.

[8] = dogs, previous studies; cited from earlier work
[9] = primate models; cited from earlier work
[10] = target: type 2 vesicular transporter (VMAT2) (Homo sapiens, UniProt Q05940); details: cited from earlier work
[11] = ICR mice, IV ^52Mn^2+, awake at injection, static PET 1 h post injection
[12] = rapid IV bolus, isoflurane throughout, 1 h post injection

Sequence of type 2 vesicular transporter (VMAT2) (Q05940 whole entry, species assumed): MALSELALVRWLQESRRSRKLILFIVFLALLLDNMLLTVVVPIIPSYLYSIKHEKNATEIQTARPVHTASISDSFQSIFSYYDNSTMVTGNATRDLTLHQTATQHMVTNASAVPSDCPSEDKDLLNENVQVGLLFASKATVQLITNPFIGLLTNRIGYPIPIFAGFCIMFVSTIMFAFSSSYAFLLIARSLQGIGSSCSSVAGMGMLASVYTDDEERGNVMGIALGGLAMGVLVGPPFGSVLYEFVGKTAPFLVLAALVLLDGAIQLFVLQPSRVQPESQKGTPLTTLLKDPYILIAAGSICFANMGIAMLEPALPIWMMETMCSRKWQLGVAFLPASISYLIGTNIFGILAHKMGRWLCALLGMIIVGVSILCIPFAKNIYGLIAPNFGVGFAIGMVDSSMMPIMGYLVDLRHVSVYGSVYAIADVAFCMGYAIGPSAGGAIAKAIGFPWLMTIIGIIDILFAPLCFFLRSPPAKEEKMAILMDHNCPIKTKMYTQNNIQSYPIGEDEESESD

Question: With `[52Mn+2]` [^52Mn^2+] as the compound, how does the “^52Mn^2+ uptake in heart (PET ROI)” value [1, 11] read?
Answer: The value was 2.11±0.20 SUV.

Question: And the “^52Mn^2+ uptake in kidneys (PET ROI)” value [1, 11]?
Answer: Its value is 5.13±0.02 SUV.

Question: What about the “^52Mn^2+ uptake in liver (PET ROI)” value [1, 11] of the same compound?
Answer: The value was 3.27±0.36 SUV and 3.27±0.34 SUV.

Question: And the “^52Mn^2+ uptake in muscle (PET ROI)” value [1, 11]?
Answer: Its value is 0.38±0.03 SUV.

Question: And the “^52Mn^2+ uptake in pancreas (PET ROI)” value [1, 11]?
Answer: Its value is 5.13±0.38 SUV and 5.13±0.36 SUV.

Question: What about the “^52Mn^2+ uptake in salivary glands (PET ROI)” value [1, 11] of the same compound?
Answer: Its value is 2.30±0.26 SUV.

Question: What about the “^52Mn^2+ uptake in salivary gland at subsequent time points” value ([1]; ICR mice, longitudinal PET after 1 h up to 13 days post injection) of the same compound?
Answer: Its value is “around 3 SUV”.

Question: What about the “pancreas clearance half-life of ^52Mn^2+” value ([1]; healthy mice, IV) of the same compound?
Answer: Its value is “approximately 8 days”.

Question: And the “^52Mn^2+ uptake in pancreas of diabetic mice (PET ROI)” value ([2]; STZ (180 mg/kg) diabetic ICR mice, 1 h post injection, normal mice 5.13±0.38 SUV)?
Answer: Its value is 2.04±0.81 SUV.

Question: What about the “decrease in pancreatic accumulation of ^52Mn^2+, ex vivo biodistribution” value ([2]; STZ-diabetic vs normal ICR mice) of the same compound?
Answer: Its value is greater than 58%.

Question: What about the “reduction in the pancreatic accumulation of ^52Mn^2+” value ([2]; STZ-induced type-1 diabetes model vs normal) of the same compound?
Answer: Its value is roughly 60%.

Question: What about the “^52Mn^2+ uptake in other organs (brain, lungs, bones, intestines, stomach, spleen)” value [3] of the same compound?
Answer: Its value is “less than 0.5 SUV”.

Question: What about the “^52Mn^2+ uptake by islets under resting conditions” value [4] of the same compound?
Answer: Its value is “readily taken up”.

Question: What about the “^52Mn^2+ uptake in the pancreas at peak” value [5] of the same compound?
Answer: The value was 5-6 SUV.

Question: What about the “^52Mn^2+ uptake in liver, lean mice” value ([6]; lean C57BL/6J, 1 h) of the same compound?
Answer: Its value is 3.40±0.73 SUV.

Question: And the “^52Mn^2+ uptake in salivary gland, lean mice” value ([6]; lean C57BL/6J, 1 h)?
Answer: Its value is 3.11±1.05 SUV.

Question: And the “^52Mn^2+ pancreatic uptake, lean mice” value ([6]; lean C57BL/6J, PET 1 h after administration)?
Answer: The value was 4.89±0.68 SUV.

Question: And the “^52Mn^2+ uptake in liver, obese mice” value ([6]; ob/ob C57BL/6J, 1 h)?
Answer: The value was 3.68±0.25 SUV.

Question: And the “^52Mn^2+ uptake in salivary gland, obese mice” value ([6]; ob/ob C57BL/6J, 1 h)?
Answer: The value was 2.40±0.20 SUV.

Question: And the “^52Mn^2+ pancreatic uptake, ob/ob mice” value ([6]; pre-type 2 diabetic ob/ob C57BL/6J, PET 1 h after administration)?
Answer: The value was 7.27±1.03 SUV.

Question: What about the “^52Mn^2+ uptake in pancreas, continuous infusion” value ([7]; IV infusion over 30 min, isoflurane) of the same compound?
Answer: Its value is 3.44±0.69 SUV.

Question: And the “^52Mn^2+ uptake in kidney, continuous infusion” value ([7]; IV infusion over 30 min, isoflurane, 1 h post injection)?
Answer: Its value is 5.14±1.21 SUV.

Question: And the “reduction in pancreatic uptake, dynamic vs static PET” value ([7]; rapid IV bolus under isoflurane vs awake injection, 1 h post injection)?
Answer: The value was roughly 50%.

Question: What about the “time until uptake stabilized in organs of interest” value ([7]; rapid IV bolus, dynamic PET) of the same compound?
Answer: The value was “within five minutes”.

Question: And the blood circulation half-life ([7]; rapid IV bolus, from myocardial TAC of dynamic PET)?
Answer: Its blood circulation half-life is 10.7 ± 3.5 s.

Question: What about the “^52Mn^2+ uptake in heart, dynamic PET” value [7, 12] of the same compound?
Answer: The value was 2.60±0.41 SUV.

Question: What about the “^52Mn^2+ uptake in kidneys, dynamic PET” value [7, 12] of the same compound?
Answer: Its value is 7.81±0.51 SUV.

Question: And the “^52Mn^2+ uptake in liver, dynamic PET” value [7, 12]?
Answer: The value was 5.16±1.46 SUV.

Question: And the “^52Mn^2+ uptake in muscle, dynamic PET” value [7, 12]?
Answer: Its value is 0.16±0.02 SUV.

Question: What about the “^52Mn^2+ uptake in pancreas, dynamic PET” value [7, 12] of the same compound?
Answer: Its value is 2.74±0.59 SUV.

Question: With `[54Mn]` [Mn-54] as the compound, how does the blood clearance [8] read?
Answer: The blood clearance was roughly 0.8 min.

Question: With `COc1cc2c(cc1O[11CH3])CCN1CC(CC(C)C)C(O)CC21` (stereo not drawn) [[^11C]-DTBZ, [^11C]-Dihydrotetrabenazine] as the compound, how does the pancreatic uptake [9] read?
Answer: The pancreatic uptake was “very low”.

Question: For `COc1cc2c(cc1OCCCF)CCN1CC(CC(C)C)C(O)CC21` (stereo not drawn) [FP-(+)-DTBZ], which “affinity for VMAT2” value [10] is on record?
Answer: Its value is “high affinity”.
